Laboratory results published in US20120029187A1, “HALOALKYLSULFONANILIDE DERIVATIVE” (Nissan Chemical Industries, Ltd., priority 2009, published 2012).

Experiments:
Format in all cases: in vivo
[1] = tested on: ducksalad; assay: Test Example 2: herbicidal effects during the vegetation period under submerged conditions; conditions: treatment during the vegetation period under submerged conditions; dose 2.52 g/a
Outline: (§1)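 Barnyardgrass, bulrush and ducksalad were co-sown in alluvial soil flooded to 4 cm and grown in a greenhouse at 25 to 30° C. At the 1- or 2-leaf stage, water-diluted emulsifiable concentrates went onto the water surface at set doses (g/a). Herbicidal effect was scored three weeks later on a graded scale.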

[2] = tested on: bulrush; assay: as above; conditions: treatment during the vegetation period under submerged conditions; dose 2.52 g/a
Outline: as §1

[3] = tested on: barnyardgrass; assay: as above; conditions: treatment during the vegetation period under submerged conditions; dose 2.52 g/a
Outline: as §1

[4] = tested on: transplanted rice; assay: Test Example 1: preemergence treatment under submerged conditions, effect on crop; conditions: dose 2.52 g/a
Outline: (§2)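 Scoring 0 (<5% mortality) to 5 (≥90%) was done three weeks after preemergence application to the water surface of submerged (4 cm) alluvial soil, doses given as g per are. Weeds were seeded and 2.5-leaf rice transplanted on the treatment day; greenhouse at 25–30 °C.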

[5] = tested on: ducksalad; assay: Test Example 1: herbicidal effects in preemergence treatment under submerged conditions; conditions: dose 2.52 g/a
Outline: as §2

[6] = tested on: bulrush; assay: as above; conditions: dose 2.52 g/a
Outline: as §2

[7] = tested on: barnyardgrass; assay: as above; conditions: dose 2.52 g/a
Outline: as §2

[8] = tested on: large crabgrass; assay: Test Example 4: herbicidal effect in foliage treatment; conditions: dose 3.2 g/a, three weeks after application
Outline: (§3)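 Sowing in sterilized diluvial soil, ~1.5 cm cover; growth 14 d, 25–30° C greenhouse; foliar spray of water-diluted EC at predetermined g/a; scoring 3 wk later on graded scale.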

[9] = tested on: giant foxtail; assay: as above; conditions: dose 3.2 g/a, three weeks after application
Outline: as §3

[10] = tested on: common chickweed; assay: as above; conditions: dose 3.2 g/a, three weeks after application
Outline: as §3

[11] = tested on: beadstraw; assay: as above; conditions: dose 3.2 g/a, three weeks after application
Outline: as §3

[12] = tested on: common ragweed; assay: as above; conditions: dose 3.2 g/a, three weeks after application
Outline: as §3

[13] = tested on: Italian ryegrass; assay: as above; conditions: dose 3.2 g/a, three weeks after application
Outline: as §3

[14] = tested on: velvetleaf; assay: as above; conditions: dose 3.2 g/a, three weeks after application
Outline: as §3

[15] = tested on: common lambsquater; assay: as above; conditions: dose 3.2 g/a, three weeks after application
Outline: as §3

[16] = tested on: water foxtail; assay: as above; conditions: dose 3.2 g/a, three weeks after application
Outline: as §3

[17] = tested on: posumbu knotweed; assay: as above; conditions: dose 3.2 g/a, three weeks after application
Outline: as §3

[18] = tested on: redroot pigweed; assay: as above; conditions: dose 3.2 g/a, three weeks after application
Outline: as §3

[19] = tested on: barnyardgrass; assay: as above; conditions: dose 3.2 g/a, three weeks after application
Outline: as §3

[20] = tested on: large crabgrass; assay: Test Example 3: herbicidal effects in soil treatment; conditions: dose 3.2 g/a
Outline: (§4)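 Seeds were sown in sterilized diluvial soil and covered with about 1.5 cm of soil. Compounds, formulated as emulsifiable concentrates and diluted with water, were sprayed evenly over the soil surface at set doses in g/a. Herbicidal effect was scored on a rating scale three weeks later.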

[21] = tested on: giant foxtail; assay: as above; conditions: dose 3.2 g/a
Outline: as §4

[22] = tested on: common chickweed; assay: as above; conditions: dose 3.2 g/a
Outline: as §4

[23] = tested on: common ragweed; assay: as above; conditions: dose 3.2 g/a
Outline: as §4

[24] = tested on: Italian ryegrass; assay: as above; conditions: dose 3.2 g/a
Outline: as §4

[25] = tested on: velvetleaf; assay: as above; conditions: dose 3.2 g/a
Outline: as §4

[26] = tested on: common lambsquater; assay: as above; conditions: dose 3.2 g/a
Outline: as §4

[27] = tested on: water foxtail; assay: as above; conditions: dose 3.2 g/a
Outline: as §4

[28] = tested on: posumbu knotweed; assay: as above; conditions: dose 3.2 g/a
Outline: as §4

[29] = tested on: redroot pigweed; assay: as above; conditions: dose 3.2 g/a
Outline: as §4

[30] = tested on: barnyardgrass; assay: as above; conditions: dose 3.2 g/a
Outline: as §4

SMILES: CCOC(=O)N(c1ccccc1CN1COC(C)(COC)CC1=O)S(=O)(=O)C(F)(F)F (stereo not drawn) [II-55]
- C: ducksalad, herbicidal effect (evaluation scale 0-5) [1]: 5 (mortality of 90% or above (nearly complete death))
- B: bulrush, herbicidal effect (evaluation scale 0-5) [2]: 5 (mortality of 90% or above (nearly complete death))
- A: barnyardgrass, herbicidal effect (evaluation scale 0-5) [3]: 5 (mortality of 90% or above (nearly complete death))
- a: transplanted rice, effect on crop (evaluation scale 0-5) [4]: 0 (mortality of less than 5% (almost ineffective))
- C: ducksalad, herbicidal effect (evaluation scale 0-5) [5]: 5 (mortality of 90% or above (nearly complete death))
- B: bulrush, herbicidal effect (evaluation scale 0-5) [6]: 5 (mortality of 90% or above (nearly complete death))
- A: barnyardgrass, herbicidal effect (evaluation scale 0-5) [7]: 5 (mortality of 90% or above (nearly complete death))
- D: large crabgrass, herbicidal effect [8]: 4 (mortality of at least 70% and less than 90%)
- E: giant foxtail, herbicidal effect [9]: 5 (mortality of 90% or above (nearly complete death))
- N: common chickweed, herbicidal effect [10]: 4 (mortality of at least 70% and less than 90%)
- O: beadstraw, herbicidal effect [11]: 4 (mortality of at least 70% and less than 90%)
- J: common ragweed, herbicidal effect [12]: 4 (mortality of at least 70% and less than 90%)
- H: Italian ryegrass, herbicidal effect [13]: 5 (mortality of 90% or above (nearly complete death))
- I: velvetleaf, herbicidal effect [14]: 5 (mortality of 90% or above (nearly complete death))
- L: common lambsquater, herbicidal effect [15]: 4 (mortality of at least 70% and less than 90%)
- G: water foxtail, herbicidal effect [16]: 5 (mortality of 90% or above (nearly complete death))
- M: posumbu knotweed, herbicidal effect [17]: 3 (mortality of at least 40% and less than 70%)
- K: redroot pigweed, herbicidal effect [18]: 0 (mortality of less than 5% (almost ineffective))
- A: barnyardgrass, herbicidal effect [19]: 5 (mortality of 90% or above (nearly complete death))
- D: large crabgrass, herbicidal effect (evaluation scale 0-5) [20]: 5 (mortality of 90% or above (nearly complete death))
- E: giant foxtail, herbicidal effect (evaluation scale 0-5) [21]: 5 (mortality of 90% or above (nearly complete death))
- N: common chickweed, herbicidal effect (evaluation scale 0-5) [22]: 5 (mortality of 90% or above (nearly complete death))
- J: common ragweed, herbicidal effect (evaluation scale 0-5) [23]: 5 (mortality of 90% or above (nearly complete death))
- H: Italian ryegrass, herbicidal effect (evaluation scale 0-5) [24]: 5 (mortality of 90% or above (nearly complete death))
- I: velvetleaf, herbicidal effect (evaluation scale 0-5) [25]: 5 (mortality of 90% or above (nearly complete death))
- L: common lambsquater, herbicidal effect (evaluation scale 0-5) [26]: 4 (mortality of at least 70% and less than 90%)
- G: water foxtail, herbicidal effect (evaluation scale 0-5) [27]: 5 (mortality of 90% or above (nearly complete death))
- M: posumbu knotweed, herbicidal effect (evaluation scale 0-5) [28]: 5 (mortality of 90% or above (nearly complete death))
- K: redroot pigweed, herbicidal effect (evaluation scale 0-5) [29]: 3 (mortality of at least 40% and less than 70%)
- A: barnyardgrass, herbicidal effect (evaluation scale 0-5) [30]: 5 (mortality of 90% or above (nearly complete death))

SMILES: CCOC(=O)N(c1ccccc1CN1COC2(CCCCC2)CC1=O)S(=O)(=O)C(F)(F)F [II-68]
- C: ducksalad, herbicidal effect (evaluation scale 0-5) [1]: 5 (mortality of 90% or above (nearly complete death))
- B: bulrush, herbicidal effect (evaluation scale 0-5) [2]: 5 (mortality of 90% or above (nearly complete death))
- A: barnyardgrass, herbicidal effect (evaluation scale 0-5) [3]: 5 (mortality of 90% or above (nearly complete death))
- a: transplanted rice, effect on crop (evaluation scale 0-5) [4]: 3 (mortality of at least 40% and less than 70%)
- C: ducksalad, herbicidal effect (evaluation scale 0-5) [5]: 5 (mortality of 90% or above (nearly complete death))
- B: bulrush, herbicidal effect (evaluation scale 0-5) [6]: 5 (mortality of 90% or above (nearly complete death))
- A: barnyardgrass, herbicidal effect (evaluation scale 0-5) [7]: 5 (mortality of 90% or above (nearly complete death))
- D: large crabgrass, herbicidal effect [8]: 4 (mortality of at least 70% and less than 90%)
- E: giant foxtail, herbicidal effect [9]: 5 (mortality of 90% or above (nearly complete death))
- N: common chickweed, herbicidal effect [10]: 4 (mortality of at least 70% and less than 90%)
- O: beadstraw, herbicidal effect [11]: 3 (mortality of at least 40% and less than 70%)
- J: common ragweed, herbicidal effect [12]: 3 (mortality of at least 40% and less than 70%)
- H: Italian ryegrass, herbicidal effect [13]: 1 (mortality of at least 5% and less than 20%)
- I: velvetleaf, herbicidal effect [14]: 4 (mortality of at least 70% and less than 90%)
- L: common lambsquater, herbicidal effect [15]: 4 (mortality of at least 70% and less than 90%)
- G: water foxtail, herbicidal effect [16]: 3 (mortality of at least 40% and less than 70%)
- M: posumbu knotweed, herbicidal effect [17]: 2 (mortality of at least 20% and less than 40%)
- K: redroot pigweed, herbicidal effect [18]: 2 (mortality of at least 20% and less than 40%)
- A: barnyardgrass, herbicidal effect [19]: 5 (mortality of 90% or above (nearly complete death))
- D: large crabgrass, herbicidal effect (evaluation scale 0-5) [20]: 5 (mortality of 90% or above (nearly complete death))
- E: giant foxtail, herbicidal effect (evaluation scale 0-5) [21]: 5 (mortality of 90% or above (nearly complete death))
- N: common chickweed, herbicidal effect (evaluation scale 0-5) [22]: 4 (mortality of at least 70% and less than 90%)
- J: common ragweed, herbicidal effect (evaluation scale 0-5) [23]: 2 (mortality of at least 20% and less than 40%)
- H: Italian ryegrass, herbicidal effect (evaluation scale 0-5) [24]: 5 (mortality of 90% or above (nearly complete death))
- I: velvetleaf, herbicidal effect (evaluation scale 0-5) [25]: 5 (mortality of 90% or above (nearly complete death))
- L: common lambsquater, herbicidal effect (evaluation scale 0-5) [26]: 4 (mortality of at least 70% and less than 90%)
- G: water foxtail, herbicidal effect (evaluation scale 0-5) [27]: 5 (mortality of 90% or above (nearly complete death))
- M: posumbu knotweed, herbicidal effect (evaluation scale 0-5) [28]: 5 (mortality of 90% or above (nearly complete death))
- K: redroot pigweed, herbicidal effect (evaluation scale 0-5) [29]: 3 (mortality of at least 40% and less than 70%)
- A: barnyardgrass, herbicidal effect (evaluation scale 0-5) [30]: 5 (mortality of 90% or above (nearly complete death))
